These are literature values, as cited in US12161629B2, “Methods and compositions for treatment of glaucoma and related conditions” (Opus Genetics, Inc., priority 2018, dated 2024).

The subject of data set [1] is alpha-1 adrenergic receptor.

Counter-ions that a name gives are not always drawn. Like-named read-outs stand apart in the source and are kept apart here.

In the case of `Cc1ccccc1N1CCN(CCc2nnc3n2CCCC3)CC1` [dapiprazole hydrochloride], the “effect on intraocular pressure” value with eyes of patients (in normotensive eyes or in eyes with elevated intraocular pressure) is recorded as “not significantly alter intraocular pressure”.

Take `CCCC(=O)N1CCCN(c2nc(N)c3cc(OC)c(OC)cc3n2)CC1` [bunazosin]: the “effect on intraocular pressure” value with eyes of patients (in patients, Hara et al., Cardiovascular Drug Reviews (2005)) is “decreased intraocular pressure in patients”. Besides, the “inhibitory activity, alpha-1 versus alpha-2 adrenergic receptor” value in data set [1] is “greater inhibitory activity towards (i) the alpha-1 adrenergic receptor compared to the (ii) alpha-2 adrenergic receptor”.
